The source of these data is patent US11905277B1, “2-alkyloxy-6-(2-oxo-2H-1-benzopyran-3-yl)-4-phenylpyridine-3-carbonitrile as an antimicrobial compound” (KING FAISAL UNIVERSITY, priority 2023, dated 2024).

The subject of series [1] is Bacillus cereus. As to the kind of experiment: Agar plate disc-diffusion, antibacterial activity (inhibition zone). It is filed as cell-based. As to conditions: nutrient agar, 37° C., 48 h, DMSO zone subtracted. As to the method: (§1) The agar plate disc-diffusion method was applied. Sterilized filter papers (6 mm in diameter) were wetted with 10 μL of a solution of 2-ethoxy-6-(2-oxo-2H-1-benzopyran-3-yl)-4-phenylpyridine-3-carbonitrile (1) and 2-methoxy-6-(2-oxo-2H-1-benzopyran-3-yl)-4-phenylpyridine-3-carbonitrile (2) to be tested, containing […], and the discs were allowed to air dry. The discs were then placed onto the surface of agar plates (nutrient agar for bacteria and Sabouraud's dextrose agar for fungi) seeded with the test organism. Each plate contained 15 mL of the agar medium, previously seeded with 0.2 mL of the broth culture of each organism pregrown for 18 hours. The plates were incubated at 37° C. for 48 h, and 72 h for fungi. The inhibition zones were measured in mm. Discs impregnated with DMSO were used as a control, and its inhibition zone was subtracted from the tested compound actual inhibition zone.

The test system of series [2] is Escherichia coli. Described as above. It is filed as cell-based. The note with it: nutrient agar, 37° C., 48 h, DMSO zone subtracted. How it is done: as §1
Series [3] concerns Pseudomonas aeruginosa. The series is described as above. It is filed as cell-based. The note with it: nutrient agar, 37° C., 48 h, DMSO zone subtracted. As to the method:
as §1

Series [4] has as its system Staphylococcus aureus. The description is as above. It is filed as cell-based. As to conditions: nutrient agar, 37° C., 48 h, DMSO zone subtracted. As to the method: as §1
Series [5] has as its system Aspergillus flavus. In words: Agar plate disc-diffusion, antifungal activity (inhibition zone). It is filed as cell-based. The note with it: Sabouraud's dextrose agar, 72 h, DMSO zone subtracted. As to the method:
as §1

Series [6] has as its system Chrysosporium keratinophilum. Described as above. It is filed as cell-based. As to conditions: Sabouraud's dextrose agar, 72 h, DMSO zone subtracted. How it is done: as §1
Series [7] concerns different microbes. As to the kind of experiment: Antimicrobial testing, overall statement on Tables 1 and 2. It counts as cell-based. As to conditions: summary of Tables 1 and 2; bacteria and fungi tested. How it is done:
as §1
Their antibacterial activity was screened against gram positive bacteria namely Bacillus cereus and Staphylococcus aureus and gram-negative bacterial strains namely Pseudomonas aeruginosa and Escherichia coli, while their antifungal activity was screened against Aspergillus flavus and Chrysosporium keratinophilum.

Setting [8] is: A = concentration of comp. = 10,000 μL.
Setting [9] is: B = concentration of comp. = 30.000 μL.
Where [10] appears, read: C = concentration of comp. = 50,000 μL.

`O=C(O)c1cn(C2CC2)c2cc(N3CCNCC3)c(F)cc2c1=O` [Cip., reference compound]: the inhibition zone is 29 mm in series [1] (setting [8]); 30 mm in series [1] (setting [9]); 42 mm in series [1] (setting [10]); 30 mm in series [2] (setting [8]); 39 mm in series [2] (setting [9]); 60 mm in series [2] (setting [10]). Further, the inhibition zone is recorded as 29 mm in series [3] (setting [8]); 30 mm in series [3] (setting [9]); 53 mm in series [3] (setting [10]); 43 mm in series [4] (setting [8]); 44 mm in series [4] (setting [9]); 53 mm in series [4] (setting [10]). Besides, the inhibition zone in series [5] (setting [8]) amounted to 29 mm; in series [5] (setting [9]), 30 mm; in series [5] (setting [10]), 42 mm; in series [6] (setting [8]) it was 29 mm; in series [6] (setting [9]) it was 30 mm; in series [6] (setting [10]), 53 mm.

By melting point is commonly meant the temperature, or range, at which the solid turns liquid. With `COc1nc(-c2cc3ccccc3oc2=O)cc(-c2ccccc2)c1C#N` [Compound 2, 2-methoxy-6-(2-oxo-2H-1-benzopyran-3-yl)-4-phenylpyridine-3-carbonitrile], the melting point is 149 to 150 °C. In series [1] (setting [8]), this compound showed an inhibition zone of 33 mm. The inhibition zone in series [1] (setting [9]) came out at 38 mm. The same compound came in with an inhibition zone in series [1] (setting [10]) of 44 mm. This compound also yielded an inhibition zone in series [2] (setting [8]) of 37 mm. In series [2] (setting [9]), the inhibition zone is recorded as 43 mm. In series [2] (setting [10]), the inhibition zone is listed as 49 mm. In addition, the inhibition zone in series [3] (setting [8]) was found to be 25 mm. In series [3] (setting [9]), this compound registered an inhibition zone of 34 mm. In series [3] (setting [10]), the inhibition zone turned out to be 41 mm. For the same compound, in series [4] (setting [8]), the inhibition zone is listed as 15 mm. This compound also gave an inhibition zone in series [4] (setting [9]) of 22 mm. The same compound displayed an inhibition zone in series [4] (setting [10]) of 25 mm. The inhibition zone in series [5] (setting [8]) is given as 17 mm. The compound also came in with an inhibition zone in series [5] (setting [9]) of 21 mm. The same compound displayed an inhibition zone in series [5] (setting [10]) of 29 mm. The inhibition zone in series [6] (setting [8]) amounted to 31 mm. In series [6] (setting [9]), this compound registered an inhibition zone of 39 mm. Besides, the inhibition zone in series [6] (setting [10]) was 47 mm. In addition, the “antimicrobial activity (in words)” value in series [7] is reported as “high antimicrobial activities”.

In the case of `CCOc1nc(-c2cc3ccccc3oc2=O)cc(-c2ccccc2)c1C#N` [Compound 1, 2-ethoxy-6-(2-oxo-2H-1-benzopyran-3-yl)-4-phenylpyridine-3-carbonitrile], the inhibition zone was determined as 31 mm in series [1] (setting [8]); 36 mm in series [1] (setting [9]); 43 mm in series [1] (setting [10]); 38 mm in series [2] (setting [8]); 43 mm in series [2] (setting [9]); 48 mm in series [2] (setting [10]). Moreover, the inhibition zone worked out at 25 mm in series [3] (setting [8]); 32 mm in series [3] (setting [9]); 40 mm in series [3] (setting [10]); 11 mm in series [4] (setting [8]); 19 mm in series [4] (setting [9]); 21 mm in series [4] (setting [10]). For the same compound, the inhibition zone in series [5] (setting [8]) is on record as 29 mm; in series [5] (setting [9]), 33 mm; in series [5] (setting [10]), 41 mm; in series [6] (setting [8]), 22 mm; in series [6] (setting [9]), 31 mm; in series [6] (setting [10]), 37 mm. The “antimicrobial activity (in words)” value in series [7] was “high antimicrobial activities”.
